Reference: PubChem BioAssay (NCI)
Where “and” joins values, the source holds several entries; their conditions need not be identical. Identical values can stand only once.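 48-hour exposure; five concentrations; linearly interpolated endpoints. GI50 is the concentration that inhibits growth by half. TGI denotes the concentration required for complete inhibition of growth.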

How the values were obtained:
Test in all cases: NCI-60 cell line screen, 48 h
ACHN renal = test system: ACHN renal
COLO 205 colon = test system: COLO 205 colon
EKVX NSCLC = test system: EKVX NSCLC
HCT-116 colon = test system: HCT-116 colon
HCT-15 colon = test system: HCT-15 colon
NCI-H522 lung = test system: NCI-H522 lung
SF-268 CNS = test system: SF-268 CNS
SK-OV-3 ovarian = test system: SK-OV-3 ovarian
SNB-19 CNS = test system: SNB-19 CNS
HS 578T breast = test system: HS 578T breast

SMILES	TGI (ACHN renal)	TGI (COLO 205 colon)	TGI (EKVX NSCLC)	TGI (HCT-116 colon)	TGI (HCT-15 colon)	TGI (NCI-H522 lung)	TGI (SF-268 CNS)	TGI (SK-OV-3 ovarian)	TGI (SNB-19 CNS)	GI50 (COLO 205 colon)	GI50 (HCT-116 colon)	GI50 (HCT-15 colon)	GI50 (HS 578T breast)	TGI (HS 578T breast)	GI50 (NCI-H522 lung)	GI50 (SF-268 CNS)	GI50 (SK-OV-3 ovarian)	GI50 (SNB-19 CNS)	GI50 (ACHN renal)	GI50 (EKVX NSCLC)
COC(=O)C(C(=O)C(=O)Nc1nc2ccc(OC)cc2s1)c1cnc2ccccc2n1 (stereo not given)	> 100 µM	> 100 µM	> 100 µM	> 100 µM	> 100 µM	> 100 µM	> 100 µM	> 100 µM	> 100 µM											
O=NN(CC(=O)NNc1ccccc1)CC(=O)NNc1ccccc1	> 100 µM	> 59.2 µM		> 100 µM	> 100 µM	> 100 µM	> 100 µM	> 100 µM	> 100 µM	5.69 µM	> 100 µM	12.3 µM	> 100 µM	> 100 µM	1.27 µM	22.1 µM	> 100 µM	> 100 µM		
O=S(=O)(c1ccccc1)C1(C2(S(=O)(=O)c3ccccc3)CCN=N2)CCN=N1 (stereo not given)	> 100 µM	> 100 µM	> 100 µM	> 100 µM	> 100 µM	> 100 µM	> 100 µM	> 100 µM	> 100 µM											
NNC(=O)C(=O)N/N=C1\CCCC1C(=O)CCC(=O)Nc1cccc(Cl)c1 (stereo not given)	> 100 µM	> 100 µM	> 100 µM	> 100 µM			> 100 µM		> 100 µM											
O=c1oc2cc(O)ccc2cc1-c1nc2ccccc2o1	> 100 µM	80.3 µM	> 100 µM	> 100 µM	> 100 µM	56.1 µM	> 100 µM		> 100 µM					> 100 µM						
CCn1cnc(C[C@H](NC(=O)[C@@H](NC(=O)Nc2cc(C(F)(F)F)cc(C(F)(F)F)c2)C(C)(C)C)C(=O)OC)c1	> 10 µM	> 10 µM		> 10 µM	> 10 µM	> 10 µM	> 10 µM	> 10 µM	> 10 µM	> 10 µM	> 10 µM	> 10 µM	> 10 µM	> 10 µM	> 10 µM	> 10 µM	> 10 µM	> 10 µM	> 10 µM	
Cc1c(C(=O)Nc2ccc(Oc3ccnc4cc(OCC(C)(C)O)ccc34)c(F)c2)c(=O)n(-c2ccccc2)n1C		> 100 µM				> 100 µM	> 100 µM	> 100 µM	> 100 µM	2.81 µM			3.04 µM	> 100 µM	8.43 µM	6.37 µM	6.46 µM	7.23 µM		
O=C1CC[C@@H]2[C@H]3CCC(=O)c4c3c(c3cccc(O)c3c4O)O[C@@]23C(=O)c2cccc(O)c2C(O)=C13	> 100 µM	> 100 µM	> 100 µM	> 100 µM	> 100 µM	> 100 µM	> 100 µM		> 100 µM	> 100 µM	> 100 µM	> 100 µM	> 100 µM	> 100 µM	> 100 µM	> 100 µM		> 100 µM	> 100 µM	> 100 µM
CC(C)C[C@H](NC(=O)[C@@H](N)Cc1cccc2ccccc12)B(O)O	50 µM and > 100 µM		5 µM and 3.13 µM			0.741 µM			50 µM and > 100 µM	1.92 µM	0.138 µM	0.35 µM				0.246 µM and 0.0326 µM	2 µM	0.11 µM	< 0.01 µM	1.23 µM and 0.167 µM
